Source: patent US20060030569A1, “Diarylmethyl piperazine derivatives, preparations thereof and uses thereof” (AstraZeneca AB, priority 2004, published 2006)
pEC50, pIC50: −log10 of the molar value. Read-outs that look alike come from different tables or passages of the source.

Legend:
[1] = biological target: T1, δ receptors in rat brain membranes (Rattus norvegicus, UniProt P33533); experiment: Rat brain functional assay, GTPγ35S binding; format: biochemical; conditions: for Emax: in relation to SNC80, read-out: EC50rb Emax
T1 construct: membranes from BEK-293S cells expressing the cloned human opioid receptors or from homogenised rat or mouse brain; from tissue; host or cells: rat brain
Protocol: Rat brains are weighed and rinsed in ice-cold PBS (containing 2.5 mM EDTA, pH 7.4). The brains are homogenized with a polytron for 30 sec (rat) in ice-cold lysis buffer (50 mM Tris, pH 7.0, 2.5 mM EDTA, with phenylmethylsulfonyl fluoride added just prior use to […] from a 0.5 M stock in DMSO:ethanol).
(§1) The agonist activity of the compounds is measured by determining the degree to which the compounds receptor complex activates the binding of GTP to G-proteins to which the receptors are coupled. In the GTP binding assay, GTP[γ]^35S is combined with test compounds and membranes from BEK-293S cells expressing the cloned human opioid receptors or from homogenised rat or mouse brain. Agonists stimulate GTP[γ]^35S binding in these membranes. The EC50 and Emax values of compounds are determined from dose-response curves. Right shifts of the dose response curve by the delta antagonist naltrindole are performed to verify that agonist activity is mediated through delta receptors. For human δ receptor functional assays, EC50 (low) is measured when the human δ receptors used in the assay were expressed at lower levels in comparison with those used in determining EC50 (high).
(§2) Rat brain membranes are thawed at 37° C., passed 3 times through a 25-gauge blunt-end needle and diluted in the GTPγS binding (50 mM Hepes, 20 mM NaOH, 100 mM NaCl, 1 mM EDTA, 5 mM MgCl2, pH 7.4, Add fresh: 1 mM DTT, 0.1% BSA). 120 μM GDP final is added membranes dilutions. […] The basal and maximal stimulated binding are determined in absence and presence of 3 μM SNC80. The assay performed on HEK 293S cells stably expressing cloned Delta receptors is done in a slightly different buffer (50 mM Hepes, 20 mM NaOH, 200 mM NaCl, 1 mM EDTA, 5 mM MgCl2, pH 7.4, Add fresh: 0.5% BSA, no DTT) and with a 3 μM final conc. of GDP.

cloned human δ receptors = biological target: T2, cloned human δ receptors (Homo sapiens, UniProt P41143); experiment: Binding assay, displacement of 125I-Deltorphin II (IC50hd)
T2 construct: expressed in transfected cells

cloned human μ receptors = biological target: T3, cloned human μ receptors (Homo sapiens, UniProt P35372); experiment: Binding assay, displacement of 125I-FK33824 (IC50hm)
T3 construct: expressed in transfected cells; host or cells: human 293S (HEK 293S) cells

cloned human κ receptors = biological target: T4, cloned human κ receptors (Homo sapiens, UniProt P41145); experiment: Binding assay, displacement of 125I-DPDYN (IC50hk)
T4 construct: expressed in transfected cells; host or cells: human 293S (HEK 293S) cells

human δ receptors = biological target: T5, human δ receptors (Homo sapiens, UniProt P41143); experiment: Human δ receptor functional assay, GTP[γ]35S binding; format: biochemical; conditions: for Emax: in relation to SNC80
T5 construct: expressed in transfected cells
Protocol: as §1, with “(high). The Emax values were determined in relation to the standard δ agonist SNC80, i.e., higher than 100% is a compound that has better efficacy than SNC80.” for “(high).”
as §2

[2] = human δ receptor, 293S cell membranes, read-out: IC50hd
[3] = human δ receptors expressed at higher levels, read-out: EC50h (high) Emax
[4] = human δ receptors expressed at higher levels, read-out: EC50h (high)
[5] = EC50h (low), human δ receptors expressed at lower levels
[6] = human δ receptors expressed at lower levels, read-out: EC50h (low) Emax

T5 sequence (P41143 whole entry): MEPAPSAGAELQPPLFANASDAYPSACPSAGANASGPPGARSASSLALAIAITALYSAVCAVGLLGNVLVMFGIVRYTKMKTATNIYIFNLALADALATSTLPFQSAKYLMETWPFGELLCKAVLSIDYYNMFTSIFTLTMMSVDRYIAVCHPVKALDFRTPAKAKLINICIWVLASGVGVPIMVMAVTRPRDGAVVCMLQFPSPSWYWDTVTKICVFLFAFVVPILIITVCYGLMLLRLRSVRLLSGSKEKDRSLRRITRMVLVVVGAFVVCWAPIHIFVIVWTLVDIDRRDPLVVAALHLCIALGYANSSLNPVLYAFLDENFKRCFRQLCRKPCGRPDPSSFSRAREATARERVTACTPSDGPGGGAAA
T2 sequence (P41143 whole entry): as above
T4 sequence (P41145 whole entry): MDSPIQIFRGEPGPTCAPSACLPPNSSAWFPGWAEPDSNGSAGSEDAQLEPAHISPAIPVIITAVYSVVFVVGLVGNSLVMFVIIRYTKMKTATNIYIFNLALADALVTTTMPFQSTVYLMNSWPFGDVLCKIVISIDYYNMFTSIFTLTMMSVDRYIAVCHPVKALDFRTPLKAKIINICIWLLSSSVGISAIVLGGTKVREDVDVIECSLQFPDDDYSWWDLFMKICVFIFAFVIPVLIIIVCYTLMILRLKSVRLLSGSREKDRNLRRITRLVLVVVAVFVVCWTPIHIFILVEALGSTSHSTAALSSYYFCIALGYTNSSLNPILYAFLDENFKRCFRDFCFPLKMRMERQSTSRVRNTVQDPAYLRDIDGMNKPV
T3 sequence (P35372 whole entry): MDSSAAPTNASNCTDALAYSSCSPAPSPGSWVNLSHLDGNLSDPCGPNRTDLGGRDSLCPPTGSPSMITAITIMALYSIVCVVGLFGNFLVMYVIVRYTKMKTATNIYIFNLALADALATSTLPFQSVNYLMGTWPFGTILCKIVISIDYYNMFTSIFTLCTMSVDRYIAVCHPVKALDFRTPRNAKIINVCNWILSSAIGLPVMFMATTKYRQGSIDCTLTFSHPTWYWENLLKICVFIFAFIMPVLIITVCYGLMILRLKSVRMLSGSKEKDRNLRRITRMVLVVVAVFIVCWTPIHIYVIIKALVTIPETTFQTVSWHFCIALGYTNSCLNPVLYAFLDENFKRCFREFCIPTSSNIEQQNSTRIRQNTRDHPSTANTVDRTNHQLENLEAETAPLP
T1 sequence (P33533 whole entry): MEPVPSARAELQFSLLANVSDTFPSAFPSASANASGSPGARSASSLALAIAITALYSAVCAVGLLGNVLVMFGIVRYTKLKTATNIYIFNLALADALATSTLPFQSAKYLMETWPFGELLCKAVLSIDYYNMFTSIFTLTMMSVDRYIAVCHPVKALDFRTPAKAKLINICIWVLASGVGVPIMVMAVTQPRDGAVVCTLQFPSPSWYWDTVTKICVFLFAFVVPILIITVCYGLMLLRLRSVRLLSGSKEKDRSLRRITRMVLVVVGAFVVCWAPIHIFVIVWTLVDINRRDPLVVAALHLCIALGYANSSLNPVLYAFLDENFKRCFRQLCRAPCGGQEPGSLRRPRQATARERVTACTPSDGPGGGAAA

Structure (SMILES) | pEC50 [1] | Emax [1] | pIC50 (cloned human δ receptors; [2]) | pIC50 (cloned human μ receptors) | pIC50 (cloned human κ receptors) | Emax (human δ receptors; [3]) | pEC50 (human δ receptors; [4]) | pIC50 (cloned human δ receptors) | pEC50 (human δ receptors; [5]) | Emax (human δ receptors; [6]) | pEC50 (human δ receptors; human δ receptors expressed at lower levels, read-out: EC50h (low))
CCN(CC)C(=O)c1ccc([C@@H](c2cccc(N)c2)N2CCN(Cc3ccc(F)cc3)CC2)cc1 | 6.33 | 66.3% | 8.06 | 5.48 | < 5.00 | 89.1% | 7.00 |  |  |  | 
CCN(CC)C(=O)c1ccc([C@H](c2cccc(N)c2)N2CCN(Cc3ccccc3F)CC2)cc1 |  |  |  | 5.65 | 5.14 |  |  | 9.14 | 7.32 | 90% | 
CCN(CC)C(=O)c1ccc([C@H](c2cccc(N)c2)N2CCN(Cc3ccc(F)cc3)CC2)cc1 | 7.64 | 130% | 9.23 | 6.15 | 5.26 | 104% | 8.38 |  |  | 95.3% | 7.69
CCN(CC)C(=O)c1ccc([C@H](c2cccc(N)c2)N2CCN(Cc3cccc(F)c3)CC2)cc1 |  |  |  | 5.56 | 5.24 |  |  | 8.97 | 7.11 | 84.4% | 
